The target of test [1] is T1, Estrogen receptor (Homo sapiens) (UniProt P03372).
T1 sequence (whole entry): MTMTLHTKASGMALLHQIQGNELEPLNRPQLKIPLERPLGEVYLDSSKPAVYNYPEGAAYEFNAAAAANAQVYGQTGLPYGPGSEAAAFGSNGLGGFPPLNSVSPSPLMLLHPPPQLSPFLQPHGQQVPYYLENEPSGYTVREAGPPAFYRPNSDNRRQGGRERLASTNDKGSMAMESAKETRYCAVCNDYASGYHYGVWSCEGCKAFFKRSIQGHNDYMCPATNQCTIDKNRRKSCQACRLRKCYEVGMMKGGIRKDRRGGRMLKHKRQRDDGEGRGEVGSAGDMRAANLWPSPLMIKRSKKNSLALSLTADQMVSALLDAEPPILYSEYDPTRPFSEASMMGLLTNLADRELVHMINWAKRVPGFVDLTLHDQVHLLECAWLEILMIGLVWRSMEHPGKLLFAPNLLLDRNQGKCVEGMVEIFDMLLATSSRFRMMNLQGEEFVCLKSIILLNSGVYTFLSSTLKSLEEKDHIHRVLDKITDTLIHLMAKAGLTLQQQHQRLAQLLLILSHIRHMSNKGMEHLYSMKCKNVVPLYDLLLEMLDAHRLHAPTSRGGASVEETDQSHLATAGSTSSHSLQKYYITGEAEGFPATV
The test can be described thus: Receptor binding affinity (RBA) to human recombinant estrogen receptor alpha (REH) after 24 hours at 0 degree Centigrade.

Test [2] concerns the target T1, Estrogen receptor (Homo sapiens). The test can be described thus: Binding affinity for human estrogen receptor alpha after 24 hr r at 0C.
Test [3] has the same target. Nature of the test: Binding affinity for human estrogen receptor alpha after 3 hr at 0C.

The structures appear in SMILES notation.

Take `CSc1cc(CO)cc(Br)c1-c1ccc(O)cc1`: the Activity in test [1] was 4.5%.
On to `OCc1cc(Cl)c(-c2ccc(O)c(Cc3ccccc3)c2)c(Cl)c1`, for which the Activity in test [1] worked out at 0.07%.
Regarding `OCc1ccc(-c2cc(Br)c(O)c(Br)c2)cc1`, the Activity in test [1] turned out to be 0%.
For `OCc1ccc(-c2c(Cl)c(Cl)c(O)c(Cl)c2Cl)cc1`, the Activity in test [1] amounted to 0%.
Turning to `OCc1cc(Br)c(-c2ccc(O)cc2)c(-n2cccc2)c1`, the Activity in test [1] came to 2%.
On to `CC(C)c1cc(CO)cc(Cl)c1-c1ccc(O)cc1`, for which, in test [1], the Activity was determined as 22%.
Still for that read-out and setting: under `OCc1ccc(-c2ccc(O)cc2Cl)cc1` stands 0.03%; under `COc1cc(CO)cc(OC)c1-c1ccc(O)cc1`, 0.24%.
Consider `Nc1cc(CO)cc(Br)c1-c1ccc(O)cc1`, for which the Activity in test [1] was found to be 0.03%.
Turning to `COc1cc(CO)cc(Cl)c1-c1ccc(O)cc1`, the Activity in test [1] was 2.5%.
For `OCc1cc(Cl)c(-c2ccc(O)cc2)c(C(F)(F)F)c1`, the Activity in test [1] was 50%.
In the case of `OCc1cc(Br)c(-c2ccc(O)cc2)c(Br)c1`, the Activity in test [2] is 106%; in test [3], 425%.
Consider `OCc1ccc(-c2ccc(O)cc2)c(-c2ccc(O)cc2)c1`, for which the Activity in test [1] worked out at 1%.
Turning to `OCc1c(Cl)c(Cl)c(-c2ccc(O)cc2)c(Cl)c1Cl`, the Activity in test [1] amounted to 5.4%.
In the case of `OCc1ccc(-c2c(Cl)cc(O)cc2Cl)cc1`, in test [1], the Activity amounted to 0.4%.
In the case of `OCc1ccc(-c2ccc(O)cc2)c(Cl)c1`, the Activity in test [1] was found to be 2%.
Take `O=[N+]([O-])c1cc(CO)cc([N+](=O)[O-])c1-c1ccc(O)cc1`: the results for the Activity in test [3] and in test [1] were 24% and 5%, respectively.
Take `Cc1cc(CO)cc(C)c1-c1ccc(O)cc1`: in test [1], the Activity stood at 0.8%.
Regarding `OCc1cc(F)c(-c2ccc(O)cc2)c(F)c1`, the Activity in test [1] turned out to be 0.93%.
Regarding `O=[N+]([O-])c1cc(CO)cc(Br)c1-c1ccc(O)cc1`, the Activity in test [1] was found to be 34%.
Consider `OCc1cc(Cl)c(-c2ccc(O)cc2Cl)c(Cl)c1`, for which the Activity in test [1] came to 21%.
Regarding `Cc1cc(-c2ccc(CO)cc2)cc(C)c1O`, the Activity in test [1] turned out to be 0%.
Regarding `CN(C)C#Cc1cc(CO)cc(Br)c1-c1ccc(O)cc1`, the Activity in test [1] came to 0.2%.
`Nc1cc(CO)cc([N+](=O)[O-])c1-c1ccc(O)cc1`: in test [1], the Activity is 0.03%.
Still for that read-out and setting: under `OCc1cc(Cl)c(-c2ccc(O)cc2)c(-c2ccc(O)cc2)c1` stands 1%; under `Cc1cc(O)cc(C)c1-c1ccc(CO)cc1`, 0.06%.
As to `OCc1ccc(-c2ccc(O)cc2)c(C(F)(F)F)c1`, the Activity in test [3] is 33%; in test [1], 9.5%.
As to `OCc1cc(Cl)c(-c2ccc(O)cc2)c(Cl)c1`, the Activity was 104% in test [3] and 34% in test [1].
Take `OCc1cc(Br)c(-c2ccc(O)cc2)c(I)c1`: the Activity in test [1] amounted to 41%.

Values taken from ChEMBL document CHEMBL1134802, “Biphenyls as surrogates of the steroidal backbone. Part 1: synthesis and estrogen receptor affinity of an original series of polysubstituted biphenyls” (Bioorg Med Chem Lett, 2001).
